Entries after “also recorded” stand apart in the source; their conditions may differ. Each block holds one compound with its values, some of them ahead of it.
Experiments:
RAO horses [1] = test: Moldy hay challenge study in RAO horses: lung function variables (transpulmonary pressure, lung resistance, lung elastance); assay type: in vivo, horse; conditions: for Difference in lung function variables versus dexamethasone group: after 7 or 14 days; for Efficacy relative to dexamethasone measured in lung function variables and clinical score: moldy hay challenge model, RESPIMAT inhaler with Equine Inhaler device, examples 1 and 3
Source text: (§1) The commercially available […]® is used in the study.

RAO horses [2] = test: Moldy hay challenge study in RAO horses: clinical score (breathing effort score, weighted clinical score); assay type: in vivo, horse
Source text: as §1

[3] = tested on: segmented neutrophils and lymphocytes; test: Moldy hay challenge study in RAO horses: segmented neutrophil and lymphocyte counts; assay type: in vivo, horse; conditions: for Lymphocytes / Segmented neutrophils: nozzle B, n=7 mean
Method: as §1
The segmented neutrophil counts and the lymphocyte counts are determined in the studies above: ciclesonide treatment versus dexamethasone treatment.

IAD horse = test: Impulse oscillometry lung function in one IAD horse (4th ciclesonide study); assay type: in vivo; conditions: 2700 μg ciclesonide twice daily for 14 days
Source text: Ciclesonide is investigated in a baseline controlled, blinded study examining one (1) IAD horse. […] Lung function variables using the impulse oscillometry system (respiratory resistance (Rrs) and reactance (Xrs) are examined during the study.

cortisol levels = conditions: humans; after aerosol administration/inhalation; cited from earlier work
serum cortisol = test: Moldy hay challenge study in RAO horses: serum cortisol; conditions: for Serum cortisol levels: any measured time point
[4] = Concentration of ciclesonide and metabolite in equine plasma (HPLC-MS/MS); conditions: for Ciclesonide concentration in equine plasma: 2nd ciclesonide study, n=8 mean
[5] = 1st ciclesonide study, ciclesonide 450/900/1800 μg/horse twice daily
[6] = 2nd ciclesonide study, ciclesonide 1687.5 B/2700 A/2700 B μg twice daily
[7] = 3rd ciclesonide study, ciclesonide groups
[8] = D 0, 2700 μg ciclesonide/horse twice daily inhaled 14 days, 3rd ciclesonide study
[9] = D 0, 3712.5 μg ciclesonide/horse once daily in the evening inhaled 14 days, 3rd ciclesonide study
[10] = D 0, 3712.5 μg ciclesonide/horse once daily in the morning inhaled 14 days, 3rd ciclesonide study
[11] = D 14, 2700 μg ciclesonide/horse twice daily inhaled 14 days, 3rd ciclesonide study
[12] = D 14, 3712.5 μg ciclesonide/horse once daily in the evening inhaled 14 days, 3rd ciclesonide study
[13] = D 14, 3712.5 μg ciclesonide/horse once daily in the morning inhaled 14 days, 3rd ciclesonide study
[14] = D 21, 2700 μg ciclesonide/horse twice daily inhaled 14 days, 3rd ciclesonide study
[15] = D 21, 3712.5 μg ciclesonide/horse once daily in the evening inhaled 14 days, 3rd ciclesonide study
[16] = D 21, 3712.5 μg ciclesonide/horse once daily in the morning inhaled 14 days, 3rd ciclesonide study
[17] = frequencies 0.2 to 2 Hz, in contrast to pretreatment values

- Counts of lymphocytes after administration [3, 5]: no change
- Counts of segmented neutrophils after administration [3, 5]: no or minor increase
- Counts of lymphocytes after administration [3, 6]: no change
- Counts of segmented neutrophils after administration [3, 6]: no or minor increase
- Counts of lymphocytes after administration [3, 7]: no change
- Counts of segmented neutrophils after administration [3, 7]: no or minor increase
- Lymphocytes [3, 8]: 2.55e+09 L⁻¹
- Segmented neutrophils [3, 8]: 3.97e+09 L⁻¹
- Lymphocytes [3, 9]: 2.55e+09 L⁻¹
- Segmented neutrophils [3, 9]: 3.73e+09 L⁻¹
- Lymphocytes [3, 10]: 2.21e+09 L⁻¹
- Segmented neutrophils [3, 10]: 4.37e+09 L⁻¹
- Lymphocytes [3, 11]: 2.54e+09 L⁻¹
- Segmented neutrophils [3, 11]: 4.57e+09 L⁻¹
- Lymphocytes [3, 12]: 2.43e+09 L⁻¹
- Segmented neutrophils [3, 12]: 4.37e+09 L⁻¹
- Lymphocytes [3, 13]: 2.48e+09 L⁻¹
- Segmented neutrophils [3, 13]: 4.45e+09 L⁻¹
- Lymphocytes [3, 14]: 2.49e+09 L⁻¹
- Segmented neutrophils [3, 14]: 3.47e+09 L⁻¹
- Lymphocytes [3, 15]: 2.48e+09 L⁻¹
- Segmented neutrophils [3, 15]: 3.41e+09 L⁻¹
- Lymphocytes [3, 16]: 2.66e+09 L⁻¹
- Segmented neutrophils [3, 16]: 3.75e+09 L⁻¹
- Serum cortisol levels (serum cortisol; 1st ciclesonide study, any ciclesonide group (450/900/1800 μg/horse twice daily)): no significant reduction
- Serum cortisol levels (serum cortisol; 2nd ciclesonide study, any ciclesonide group (1687.5 B/2700 A/2700 B μg twice daily)): no significant reduction
- Serum cortisol levels (serum cortisol; 3rd ciclesonide study, any ciclesonide group (2700 μg twice daily/3712.5 μg morning/3712.5 μg evening)): no significant reduction
- Cortisol level compared to values prior to treatment (serum cortisol; after administration of the highest ciclesonide dose, example 3): does not change significantly
- Serum cortisol level of horses (serum cortisol; ciclesonide, treatment for two weeks with different dose levels, Examples 2-3): no decrease
- Ciclesonide concentration in equine plasma ([4]; day 1, 0 min, ciclesonide 2700 μg nozzle B twice daily inhaled): <0.500 nmol/L
- Ciclesonide concentration in equine plasma ([4]; day 1, 1 h, ciclesonide 2700 μg nozzle B twice daily inhaled): <0.500 nmol/L
- Ciclesonide concentration in equine plasma ([4]; day 1, 2 h, ciclesonide 1687.5 μg nozzle B twice daily inhaled): <0.500 nmol/L
- Ciclesonide concentration in equine plasma ([4]; day 1, 2 h, ciclesonide 2700 μg nozzle B twice daily inhaled): <0.500 nmol/L
- Ciclesonide concentration in equine plasma ([4]; day 1, 4 h, ciclesonide 1687.5 μg nozzle B twice daily inhaled): <0.500 nmol/L
- Ciclesonide concentration in equine plasma ([4]; day 1, 4 h, ciclesonide 2700 μg nozzle B twice daily inhaled): <0.500 nmol/L
- Ciclesonide concentration in equine plasma ([4]; day 11, 0 min, ciclesonide 2700 μg nozzle A twice daily inhaled): <0.500 nmol/L
- Ciclesonide concentration in equine plasma ([4]; day 11, 0 min, ciclesonide 2700 μg nozzle B twice daily inhaled): <0.500 nmol/L
- Ciclesonide concentration in equine plasma ([4]; day 11, 1 h, ciclesonide 2700 μg nozzle A twice daily inhaled): <0.500 nmol/L
- Ciclesonide concentration in equine plasma ([4]; day 11, 1 h, ciclesonide 2700 μg nozzle B twice daily inhaled): <0.500 nmol/L
- Ciclesonide concentration in equine plasma ([4]; day 11, 2 h, ciclesonide 2700 μg nozzle A twice daily inhaled): <0.500 nmol/L
- Ciclesonide concentration in equine plasma ([4]; day 11, 2 h, ciclesonide 2700 μg nozzle B twice daily inhaled): <0.500 nmol/L
- Ciclesonide concentration in equine plasma ([4]; day 11, 4 h, ciclesonide 2700 μg nozzle A twice daily inhaled): <0.500 nmol/L
- Ciclesonide concentration in equine plasma ([4]; day 11, 4 h, ciclesonide 2700 μg nozzle B twice daily inhaled): <0.500 nmol/L
- Conversion of ciclesonide into the effective molecule C21-C21-desisobutyrylciclesonide ([4]; in horses, example 5): can be converted
Structure (SMILES): CC(C)C(=O)OCC(=O)[C@@]12O[C@H](C3CCCCC3)O[C@@H]1C[C@H]1[C@@H]3CCC4=CC(=O)C=C[C@]4(C)[C@H]3[C@@H](O)C[C@@]12C [ciclesonide, (11β,16α)-16,17-[[(R)-Cyclohexylmethylene]bis(oxy)]-11-hydroxy-21-(2-methyl-1-oxopropoxy)pregna-1,4-diene-3,20-dione]
- ΔPL and EL compared to pretreatment values (RAO horses [1]; 1st ciclesonide study, ciclesonide 1800 μg/horse twice daily inhaled (only the highest dose), after 14 days, p=0.0005 and p=0.0004): statistically significant reduction
- Difference in ΔPL and EL versus dexamethasone group (RAO horses [1]; 1st ciclesonide study, ciclesonide 1800 μg/horse twice daily, after 14 days): no significant difference
- All lung function variables compared to pretreatment values (RAO horses [1]; 2nd ciclesonide study, all ciclesonide groups (1687.5 μg nozzle B/2700 μg nozzle A/2700 μg nozzle B twice daily), after 14 days, p=0.0009 to p<0.0001): significantly reduced
- Difference in lung function variables versus dexamethasone group (RAO horses [1]; 2nd ciclesonide study, all ciclesonide groups): no significant difference
- Difference in lung function variables (ΔPL, RL) versus placebo group (RAO horses [1]; 3rd ciclesonide study, all ciclesonide groups, after 14 days, p<0.0001 (2700 μg, 3712.5 μg evening), p=0.0005 ΔPL / p=0.0003 RL (3712.5 μg morning)): significant difference
- Change in ΔPL compared to pretreatment values (RAO horses [1]; 3rd ciclesonide study, ciclesonide 2700 μg twice daily, after 7 days, p<0.0001): significantly reduced
- ΔPL and RL compared to pretreatment values (RAO horses [1]; 3rd ciclesonide study, ciclesonide 2700 μg twice daily, after 14 days, p<0.0001): significantly reduced
- Reduction of ΔPL and RL compared to pretreatment values (RAO horses [1]; 3rd ciclesonide study, ciclesonide 2700 μg, after 7 days, p<0.0001): statistically significant
- Reduction of RL compared to pretreatment values (RAO horses [1]; 3rd ciclesonide study, ciclesonide 2700 μg, after 7 days, p=0.0002): statistically significant
- Change in ΔPL compared to pretreatment values (RAO horses [1]; 3rd ciclesonide study, ciclesonide 3712.5 μg once daily in the evening, after 7 days, p=0.001): significantly reduced
- RL compared to pretreatment values (RAO horses [1]; 3rd ciclesonide study, ciclesonide 3712.5n (once daily in the evening), after 14 days, p=0.0001): significantly reduced
- Lung function variables compared to pretreatment values and to placebo group (RAO horses [1]; 3rd ciclesonide study, ciclesonide treatment groups, after 14 days): significantly reduced
- Efficacy relative to dexamethasone measured in lung function variables and clinical score (RAO horses [1]): comparable efficacy
- Breathing effort score (RAO horses [2]; 1st ciclesonide study, ciclesonide 450/900/1800 μg/horse twice daily, any measured time point): no significant changes
- Weighted clinical score compared to pretreatment values (RAO horses [2]; 2nd ciclesonide study, all three ciclesonide groups, after 14 days, p=0.0001 to p<0.0001): significantly reduced
- Difference in weighted clinical score versus dexamethasone group (RAO horses [2]; 2nd ciclesonide study, ciclesonide treatment groups, after 14 days): no significant difference
- Weighted clinical score compared to pretreatment values (RAO horses [2]; 3rd ciclesonide study, ciclesonide 2700 μg twice daily, after 7 and 14 days, p=0.0001 (7 days), p=0.0003 (14 days)): significantly reduced
- Difference in weighted clinical score versus placebo group (RAO horses [2]; 3rd ciclesonide study, ciclesonide treatment groups, after 14 days, p=0.0002 (2700 μg, 3712.5 μg evening), p=0.0006 (3712.5 μg morning)): significant difference
- Alteration in the immune system measured by neutrophilia and lymphopenia ([3]; ciclesonide, treatment for two weeks with different dose levels, 1st and 2nd ciclesonide studies (Table 2)): no alteration; also recorded: not observed
- Mean respiratory reactance in inspiration versus expiration (IAD horse; [17]): not different
- Mean respiratory resistance in inspiration versus expiration (IAD horse; [17]): not different
- Mean respiratory resistance (Rrs) compared to pretreatment values (IAD horse; frequencies 0.2 to 20 Hz, mean of three measurements): decreased
- Mean respiratory reactance (Xrs) compared to pretreatment values (IAD horse; frequencies 5 to 10 Hz, mean of three measurements): decreased
- Measured cortisol levels (cortisol levels): no or clinically not relevant cortisol suppression

Structure (SMILES): CCCC1O[C@@H]2C[C@H]3[C@@H]4CCC5=CC(=O)C=C[C@]5(C)[C@H]4[C@@H](O)C[C@]3(C)[C@]2(C(=O)CO)O1 (stereo partly shown) [budesonide]
- All lung function variables compared to pretreatment values (RAO horses [1]; Budesonide study, budesonide 1800 μg/horse ex RESPIMAT twice daily inhaled, after 14 days, p≤0.0001): significantly reduced
- Difference in lung function variables versus dexamethasone group (RAO horses [1]; Budesonide study, budesonide 1800 μg/horse twice daily): no significant difference
- Efficacy relative to dexamethasone measured in lung function variables and clinical score (RAO horses [1]): comparable efficacy
- Clinical score compared to pretreatment values (RAO horses [2]; Budesonide study, all three budesonide groups (450/900/1800 μg/horse twice daily), after 7 and 14 days, p=0.002 to p<0.0001): significantly reduced
- Difference in clinical score versus dexamethasone group (RAO horses [2]; Budesonide study, budesonide 900 and 1800 μg/horse twice daily, after 7 and 14 days): no significant difference

From US10441597B2, “Ciclesonide for the treatment of airway disease in horses” (Boehringer Ingelheim Vetmedica GmbH, priority 2012, dated 2019)
